This is an account of results in patent publication US20260256925A1, “INDAZOLE DERIVATIVES AS ESTROGEN RECEPTOR DEGRADERS” (REGENTS OF THE UNIVERSITY OF MICHIGAN, priority 2022, published 2026).

One may read the IC50 as the concentration at which inhibition is half-maximal. As a reminder, the DC50 is the midpoint of the concentration-degradation curve.

Test [1] is described as follows: Cell growth assay, WST-8 (compounds B1-B126). The class given is cell-based. The note with it: 96 h; T47D cell line, WST-8, 4 days; read-out: Cell growth inhibition in T47D cell line IC50. The procedure, abridged: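 Read-out is WST-8 absorbance at 450 nm (2.5 h, 37° C) as a fraction of vehicle control, from three separate repeats. Compound exposure lasted 4 days, starting one day after plating 1500 cells/well.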
Background: Tetrazolium assays rely on reduction of a dye to a coloured formazan, in cell work by metabolically active cells.

Another test addresses T1, ER (Homo sapiens, UniProt P03372).
T1 construct: endogenous in cells; probably T47D or MCF-7
T1 sequence (P03372 1-595): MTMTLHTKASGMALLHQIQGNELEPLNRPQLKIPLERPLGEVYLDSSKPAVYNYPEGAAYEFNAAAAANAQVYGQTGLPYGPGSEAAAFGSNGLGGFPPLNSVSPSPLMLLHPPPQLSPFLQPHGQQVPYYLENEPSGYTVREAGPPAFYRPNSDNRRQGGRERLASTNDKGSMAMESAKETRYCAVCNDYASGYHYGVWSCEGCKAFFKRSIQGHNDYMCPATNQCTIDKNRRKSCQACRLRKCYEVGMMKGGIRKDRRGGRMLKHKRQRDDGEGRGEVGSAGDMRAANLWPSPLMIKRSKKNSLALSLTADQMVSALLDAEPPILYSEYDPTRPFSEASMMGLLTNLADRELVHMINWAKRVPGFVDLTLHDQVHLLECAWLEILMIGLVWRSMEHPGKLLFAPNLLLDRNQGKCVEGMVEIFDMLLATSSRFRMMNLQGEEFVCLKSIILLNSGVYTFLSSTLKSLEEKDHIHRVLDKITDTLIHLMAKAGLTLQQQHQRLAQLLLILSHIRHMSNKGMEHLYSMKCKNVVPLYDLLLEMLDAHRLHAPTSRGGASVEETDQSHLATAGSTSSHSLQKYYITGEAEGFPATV
The test can be described thus: In-cell western blot analysis, relative ER percentage (compounds B1-B126). It is filed as cell-based. The note with it: ER degradation, 16 hours, read-out: ICW DC50. In a few lines:
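Readout was a two-colour infrared in-cell western of formaldehyde-fixed cells after 16 h compound exposure at 0.5% DMSO, with 40,000 or 10,000 cells/well plated the previous night. Relative ER percentage compares treated wells against untreated/DMSO-treated wells taken as 100%.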

Each structure is given as a SMILES string.

As to `C[C@@H]1Cc2c(ccc3[nH]ncc23)[C@@H](c2ccc(N3CC4(CCC(CN5CCN6c7ccc8c(c7OC[C@H]6C5)CN(C5CCC(=O)NC5=O)C8=O)CC4)C3)cn2)N1CC(F)(F)F` (stereo partly drawn) [Compound B108, 3-((R)-7-((2-(6-((6S,8R)-8-methyl-7-(2,2,2-trifluoroethyl)-6,7,8,9-tetrahydro-3H-pyrazolo[4,3-f]isoquinolin-6-yl)pyridin-3-yl)-2-azaspiro[3.5]nonan-7-yl)methyl)-1-oxo-1,3,5,5a,6,7,8,9-octahydro-2H-pyrazino[1′,2′:4,5][1,4]oxazino[2,3-e]isoindol-2-yl)piperidine-2,6-dione], the IC50 in test [1] is less than 0.001 µM. Further, the DC50 on ER was less than 0.01 µM.
For `C[C@@H]1Cc2c(ccc3[nH]ncc23)[C@@H](c2ccc(N3CCC4(CC3)CC(CN3CCN5c6c(ccc7c6CN(C6CCC(=O)NC6=O)C7=O)OC[C@@H]5C3)C4)cn2)N1CC(F)(F)F` (stereo partly drawn) [Compound B109, 3-((S)-9-((7-(6-((6S,8R)-8-methyl-7-(2,2,2-trifluoroethyl)-6,7,8,9-tetrahydro-3H-pyrazolo[4,3-f]isoquinolin-6-yl)pyridin-3-yl)-7-azaspiro[3.5]nonan-2-yl)mcthyl)-3-oxo-1,3,7,7a,8,9,10,11-octahydro-2H-pyrazino[1′,2′:4,5][1,4]oxazino[3,2-e]isoindol-2-yl)piperidine-2,6-dione] the same measures were 0.001 to 0.01 µM and more than 0.1 µM.
For `C[C@@H]1Cc2c(ccc3[nH]ncc23)[C@@H](c2ccc(N3CC4(CCC(CN5CCN6c7c(ccc8c7CN(C7CCC(=O)NC7=O)C8=O)OC[C@@H]6C5)CC4)C3)cn2)N1CC(F)(F)F` (stereo partly drawn) [Compound B110, 3-((S)-9-((2-(6-((6S,8R)-8-methyl-7-(2,2,2-trifluoroethyl)-6,7,8,9-tetrahydro-3H-pyrazolo[4,3-f]isoquinolin-6-yl)pyridin-3-yl)-2-azaspiro[3.5]nonan-7-yl)methyl)-3-oxo-1,3,7,7a,8,9,10,11-octahydro-2H-pyrazino[1′,2′:4,5][1,4]oxazino[3,2-e]isoindol-2-yl)piperidine-2,6-dione] the same measures were 0.001 to 0.01 µM and more than 0.1 µM.
Take `C[C@@H]1Cc2c(ccc3[nH]ncc23)[C@@H](c2cnc(N3CCC4(CC3)CC(CN3CCN5c6ccc7c(c6OC[C@H]5C3)CN(C3CCC(=O)NC3=O)C7=O)C4)nc2)N1CC(F)(F)F` (stereo partly drawn) [Compound B112, 3-((R)-7-((7-(5-((6S,8R)-8-methyl-7-(2,2,2-trifluoroethyl)-6,7,8,9-tetrahydro-3H-pyrazolo[4,3-f]isoquinolin-6-yl)pyrimidin-2-yl)-7-azaspiro[3.5]nonan-2-yl)methyl)-1-oxo-1,3,5,5a,6,7,8,9-octahydro-2H-pyrazino[1′,2′:4,5][1,4]oxazino[2,3-e]isoindol-2-yl)piperidine-2,6-dione]: in test [1], the IC50 is less than 0.001 µM. Besides, the DC50 at ER is less than 0.01 µM.
For `C[C@@H]1Cc2c(ccc3[nH]ncc23)[C@@H](c2c(F)cc(N3CCC(CN4CCC5(CC4)COc4c5ccc5c4CN(C4CCC(=O)NC4=O)C5=O)CC3)cc2F)N1CC(F)F` (stereo partly drawn) [Compound B114, 3-(1′-((1-(4-((6S,8R)-7-(2,2-difluoroethyl)-8-methyl-6,7,8,9-tetrahydro-3H-pyrazolo[4,3-f]isoquinolin-6-yl)-3,5-difluorophenyl)piperidin-4-yl)methyl)-6-oxo-6,8-dihydro-2H,7H-spiro[furo[2,3-e]isoindole-3,4′-piperidin]-7-yl)piperidine-2,6-dione] the same measures were less than 0.001 µM and more than 0.1 µM.
In the case of `COc1cc(N2CCC3(CC2)OCC(CN2CCN4c5cc6c(cc5OC[C@H]4C2)C(=O)N(C2CCC(=O)NC2=O)C6)CO3)ccc1[C@@H]1c2ccc3[nH]ncc3c2C[C@@H](C)N1CC(F)F` (stereo partly drawn) [Compound B115, 3-((R)-3-((9-(4-((6S,8R)-7-(2,2-difluoroethyl)-8-methyl-6,7,8,9-tetrahydro-3H-pyrazolo[4,3-f]isoquinolin-6-yl)-3-mcthoxyphenyl)-1,5-dioxa-9-azaspiro[5.5]undecan-3-yl)methyl)-8-oxo-1,2,3,4,4a,5,8,10-octahydro-9H-pyrazino[1′,2′:4,5][1,4]oxazino[2,3-f]isoindol-9-yl)piperidine-2,6-dione], the IC50 in test [1] was less than 0.001 µM. Also, the DC50 on ER is less than 0.01 µM.
For `COc1cc(N2CCC3(CC2)OCC(CN2CCN4c5ccc6c(c5OC[C@@H]4C2)CN([C@@H]2CCC(=O)NC2=O)C6=O)CO3)ccc1[C@@H]1c2ccc3[nH]ncc3c2C[C@@H](C)N1CC(F)F` [Compound B116, (R)-3-((S)-7-((9-(4-((6S,8R)-7-(2,2-difluoroethyl)-8-methyl-6,7,8,9-tetrahydro-3H-pyrazolo[4,3-f]isoquinolin-6-yl)-3-methoxyphenyl)-1,5-dioxa-9-azaspiro[5.5]undecan-3-yl)methyl)-1-oxo-1,3,5,5a,6,7,8,9-octahydro-2H-pyrazino[1′,2′:4,5][1,4]oxazino[2,3-e]isoindol-2-yl)piperidine-2,6-dione] the same measures were less than 0.001 µM and less than 0.01 µM.
For `COc1cc(N2CCC3(CC2)OCC(CN2CCC4(CC2)COc2c4ccc4c2CN(C2CCC(=O)NC2=O)C4=O)CO3)ccc1[C@@H]1c2ccc3[nH]ncc3c2C[C@@H](C)N1CC(F)F` (stereo partly drawn) [Compound B117, 3-(1′-((9-(4-((6S,8R)-7-(2,2-difluoroethyl)-8-methyl-6,7,8,9-tetrahydro-3H-pyrazolo[4,3-f]isoquinolin-6-yl)-3-methoxyphenyl)-1,5-dioxa-9-azaspiro[5.5]undecan-3-yl)methyl)-6-oxo-6,8-dihydro-2H,7H-spiro[furo[2,3-e]isoindole-3,4′-piperidin]-7-yl)piperidine-2,6-dione] the same measures were less than 0.001 µM and less than 0.01 µM.
Turning to `C[C@@H]1Cc2c(ccc3[nH]ncc23)[C@@H](c2ccc(N3CCC(CN4CCC5(CC4)COc4c(ccc6c4CN([C@H]4CCC(=O)NC4=O)C6=O)O5)CC3)cn2)N1CC(F)(F)F` [Compound B119, (S)-3-(1-((1-(6-((6S,8R)-8-methyl-7-(2,2,2-trifluoroethyl)-6,7,8,9-tetrahydro-3H-pyrazolo[4,3-f]isoquinolin-6-yl)pyridin-3-yl)piperidin-4-yl)mcthyl)-7′-oxo-7′,9′-dihydro-2′H,8′H-spiro[piperidine-4,3′-[1,4]dioxino[2,3-e]isoindol]-8′-yl)piperidine-2,6-dione], the 50% inhibitory concentration (IC50) in test [1] is less than 0.001 µM. For the same compound, at ER, the DC50 was 0.01 to 0.1 µM.
In the case of `C[C@H]1Cc2c(ccc3[nH]ncc23)[C@H](c2ccc(N3CC4(CCC(CN5CCN6c7ccc8c(c7OC[C@@H]6C5)CN([C@@H]5CCC(=O)NC5=O)C8=O)CC4)C3)cn2)N1CC(F)(F)F` [Compound B124, (R)-3-((S)-7-((2-(6-((6R,8S)-8-methyl-7-(2,2,2-trifluoroethyl)-6,7,8,9-tetrahydro-3H-pyrazolo[4,3-f]isoquinolin-6-yl)pyridin-3-yl)-2-azaspiro[3.5]nonan-7-yl)methyl)-1-oxo-1,3,5,5a,6,7,8,9-octahydro-2H-pyrazino[1′,2′:4,5][1,4]oxazino[2,3-e]isoindol-2-yl)piperidine-2,6-dione], the IC50 in test [1] was less than 0.001 µM. The DC50 on ER was less than 0.01 µM.
For `C[C@@H]1Cc2c(ccc3[nH]ncc23)[C@@H](c2cnc(N3CCC4(CCC(CN5CCN6c7ccc8c(c7OC[C@H]6C5)CN([C@H]5CCC(=O)NC5=O)C8=O)CO4)CC3)nc2)N1CC(F)(F)F` (stereo partly drawn) [Compound B125, (3S)-3-((5aR)-7-((9-(5-((6S,8R)-8-methyl-7-(2,2,2-trifluoroethyl)-6,7,8,9-tetrahydro-3H-pyrazolo[4,3-f]isoquinolin-6-yl)pyrimidin-2-yl)-1-oxa-9-azaspiro[5.5]undecan-3-yl)methyl)-1-oxo-1,3,5,5a,6,7,8,9-octahydro-2H-pyrazino[1′,2′:4,5][1,4]oxazino[2,3-e]isoindol-2-yl)piperidine-2,6-dione] the same measures were less than 0.001 µM and less than 0.01 µM.
For `C[C@@H]1Cc2c(ccc3[nH]ncc23)[C@@H](c2cnc(N3CCC4(CCC(CN5CCC6(CC5)COc5c6ccc6c5CN([C@H]5CCC(=O)NC5=O)C6=O)CO4)CC3)nc2)N1CC(F)(F)F` (stereo partly drawn) [Compound B126, (3S)-3-(1′-((9-(5-((6S,8R)-8-methyl-7-(2,2,2-trifluoroethyl)-6,7,8,9-tetrahydro-3H-pyrazolo[4,3-f]isoquinolin-6-yl)pyrimidin-2-yl)-1-oxa-9-azaspiro[5.5]undecan-3-yl)methyl)-6-oxo-6,8-dihydro-2H,7H-spiro[furo [2,3-e]isoindole-3,4′-piperidin]-7-yl)piperidine-2,6-dione] the same measures were less than 0.001 µM and less than 0.01 µM.
